Entries after “also recorded” stand apart in the source; their conditions may differ.
Columns and labels:
NHE-1 = target: T1, NHE-1 (Oryctolagus cuniculus, UniProt P23791); assay: NHE-1 inhibition assay on rabbit platelets (platelet shape change after acidification with sodium propionate, laser aggregometer); assay type: cell-based
T1 construct: endogenous in cells; host or cells: rabbit platelets in platelet-rich plasma (male rabbits)

[1] = Cytotoxicity study (LDH activity in the medium) in peritoneal macrophages; assay type: cell-based; details: male, C57BL/6J, mouse, primary peritoneal macrophages; murine peritoneal macrophages, LDH
Method: (§1) Peritoneal macrophages (PM) were isolated from the peritoneal exudate of 30 male C57bl/6j mice. To accumulate PM, 1 ml of 3% peptone solution was injected intraperitoneally. After 3 days the mice were euthanized by cervical dislocation. Cells of peritoneal exudate were obtained by aseptically washing the abdominal cavity with 5 ml of sterile Hanks’s solution (+ 4-6 °C) without calcium and magnesium ions. The total number and viability of cells were assessed in a Goryaev counting chamber (Russia) with a 0.4% trypan blue staining (Sigma-Aldrich, USA). The cell concentration was adjusted to 1.0×10^6 cells/ml in DMEM (Gibco) supplemented with 2 mM L-glutamine (Gibco), 10% heat-inactivated fetal bovine serum (BioClot, Germany), 100 U/ml penicillin and […] streptomycin (Gibco) and plated 200 μl/well in 96-well transparent plates (SPL Life Sciences Co., Ltd., Korea). It was left for 2 h at 37°C in a humidified atmosphere with 5% CO2, after which the wells were washed to remove non-adherent cells. After 24 hours of incubation, 20 μl of the supernatant was removed and 20 μl of solutions of test compounds were added 30 min before E. coli O127:B8 LPS (100 ng/ml final concentration). Experiments were run in 3 independent replicates.
(§2) The activity of lactate dehydrogenase (LDH) in a cell culture medium served as a marker of membrane permeability and cell death. Aliquotes of supernatants were taken after 24 h of inoculation with test compounds, mixed with 250 μl of […] NADH solution in 54 mM phosphate buffered saline (pH 7.5). Then, 25 μl of a 6.48 mM pyruvate solution was added to the mixture. The optical density was followed at a wavelength of 340 nm for 20 min. Conversion of optical density into cell viability was carried out according to a standard curve (DMSO-treated cells as 100% and 0.01% Triton X-100-treated cells as 0% viable cells).

[2] = system: primary peritoneal macrophages of C57BL/6J mice; assay: as above; assay type: cell-based; details: 100 μM, peritoneal macrophages
Method: as §1, §2

[3] = system: primary peritoneal macrophages of C57BL/6J mice; assay: Interleukin-6 secretion (ELISA) from LPS-stimulated peritoneal macrophages; assay type: cell-based
Method: as §1
(§3) Cell supernatant was collected and centrifuged at 1000 g for 20 min in a 2-16PK Sigma centrifuge (Germany). The concentration of IL-6 was determined by ELISA using a commercial kit (Cloud-clone ELISA kit) with a microplate reader Infinite M200 PRO (Tecan, Austria).

IL-6 secretion = assay: as above; assay type: cell-based, mice; details: male, C57BL/6J, mouse, primary peritoneal macrophages stimulated with LPS; CC50 versus IC50 of IL-6 secretion; read-out: selectivity of IL-6 inhibition over cytotoxicity
Method: as §1, §3

[4] = Solubility under the conditions of the platelet aggregation assay; assay type: physicochemical; details: antiplatelet assay
Method: Test compounds were dissolved in 99% DMSO (stock concentration 40 mM) and stored at –25 °C. If sediment or opalescence was detected, 5% Tween 20 (Merck) was added. Serial dilutions were prepared ex tempore in a media suitable for the particular study. Final concentration in samples: DMSO <0.25%, Tween 20 <0.025% (were added to control samples in equal concentrations).
Functional activity of platelets was determined on a two-channel laser analyzer of platelet aggregation "BIOLA-220 LA" (Russia) as described previously. The experiments were carried out on 6 male rabbits weighing 3.5–4 kg. To prepare platelet-rich plasma (PRP) venous blood was taken from the ear marginal vein of a rabbit, stabilized with a 3.8% sodium citrate solution in a ratio of 9:1 and centrifuged for 10 min at 1500 rpm. PRP (300 μL) and a solution of the test compound at a concentration of 100 μM were sequentially introduced into the cell of the aggregometer. The samples were incubated in thermostated cells of the aggregometer at 37 °C for 5 min. To induce aggregation adenosine-5-diphosphoric acid (ADP, Sigma, USA) at a final concentration of 5 μM, was added to the cuvette. Acetylsalicylic acid (Shandong Xinhua Pharmaceutical Co., Ltd., China) was used as a reference drug. Experiments were run in 5 independent replicates.

[5] = system: primary peritoneal macrophages of C57BL/6J mice; assay: Nitric oxide synthesis (nitrite, Griess reagent) in LPS-stimulated peritoneal macrophages; assay type: cell-based; details: 100 μM
Method: as §1
The accumulation of nitrite anion (a stable end product of NO decomposition produced by iNOS) in supernatants was determined using a standard Griess reagent. Briefly, 50 μl of supernatants collected 22 hours after incubation of PM with test and control compounds were mixed with 50 μl of 1% sulfonamide in 2.5% H3PO4 and 50 μl of 0.1% N-(1-naphthyl) ethylenediamine in 2,5% H3PO4. After incubation at 23 °C for 10 min in an orbital shaker, the optical density was determined at a wavelength of 550 nm with a microplate reader Infinite M200 PRO (Tecan, Austria).

ICR mice = assay: Tail suspension test (antidepressant activity); assay type: in vivo; details: intragastrically 30 min before test, dose equimolar to 2.6 mg/kg amiloride
Method: The experiment was carried out on 36 male ICR mice weighing 22-25 g, divided into groups of 6 animals each under room lighting (300 lux). […] In experiments, test substances were administered intragastrically 30 min before the start of the test. Experimental groups received test compounds in an equimolar dose to the comparison drug amiloride. Animals of the remaining groups were treated with 2.6 mg/kg amiloride, 10 mg/kg amitriptyline, or 8 mg/kg imipramine. Distilled water was administered to the control group. The time of immobilization of the animals was recorded.

intraocular pressure = assay: Intraocular pressure studies in outbred rats (TonoVet); assay type: in vivo
Method: The experiments were carried out on 75 adult outbred rats of both sexes, which were kept in standard cages at a temperature of 25 °C and a standard light regime. Animals were randomly assigned to the control and experimental groups (n = 5). Before the start of the experiment, the rats had free access to food and water. Intraocular pressure (IOP) was measured with a TonoVet device (Finland)[44] which measures IOP with a short touch of a small disposable tip in the center of the cornea, no corneal anesthesia is required. The study was carried out according to the published method. One drop (50 μl) of a test 0.4% solution of the compound was instilled into the right eye, and deionized water was added to the left eye. IOP was measured in both eyes. The left eye, in turn, serves to assess the possible systemic exposure of the test compounds. […] IOP-lowering activity was assessed as the maximum decrease in IOP from the initial values. At 9:00 AM, baseline IOP was measured in animals of all groups. Experiments were run in 5 independent replicates.

T1 sequence (P23791 whole entry): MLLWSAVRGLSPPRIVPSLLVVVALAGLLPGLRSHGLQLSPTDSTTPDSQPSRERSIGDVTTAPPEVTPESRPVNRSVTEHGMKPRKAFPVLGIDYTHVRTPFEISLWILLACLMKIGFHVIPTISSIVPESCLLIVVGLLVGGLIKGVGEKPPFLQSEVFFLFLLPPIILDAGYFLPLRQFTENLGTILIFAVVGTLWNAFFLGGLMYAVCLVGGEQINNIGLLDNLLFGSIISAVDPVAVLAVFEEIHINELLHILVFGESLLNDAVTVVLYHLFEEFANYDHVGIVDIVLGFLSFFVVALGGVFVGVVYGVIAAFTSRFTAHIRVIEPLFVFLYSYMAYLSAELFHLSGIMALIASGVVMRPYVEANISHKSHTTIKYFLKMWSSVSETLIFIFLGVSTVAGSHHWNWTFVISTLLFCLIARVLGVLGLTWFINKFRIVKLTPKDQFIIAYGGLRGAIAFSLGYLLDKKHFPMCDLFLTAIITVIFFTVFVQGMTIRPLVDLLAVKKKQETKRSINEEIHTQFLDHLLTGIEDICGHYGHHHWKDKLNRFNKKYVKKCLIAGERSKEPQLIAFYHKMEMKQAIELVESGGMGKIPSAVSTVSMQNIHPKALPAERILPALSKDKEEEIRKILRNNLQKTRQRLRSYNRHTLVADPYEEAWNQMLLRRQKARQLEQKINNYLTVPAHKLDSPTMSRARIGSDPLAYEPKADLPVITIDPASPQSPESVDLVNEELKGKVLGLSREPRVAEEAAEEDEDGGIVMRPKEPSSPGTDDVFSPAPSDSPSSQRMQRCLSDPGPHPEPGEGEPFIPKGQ

## Cn1c(=O)n(Cc2nnc(N)[nH]2)c(=O)c2ccccc21 [Compound 3e, 3-[(5-Amino-4H-1,2,4-triazol-3-yl)methyl]-1-methylquinazoline-2,4(1H,3H)-dione]
NHE-1
  IC50: 0.0058 µM
[1]
  CC50 at 24 h: 138 µM
[2]
  effect on cell viability: absence of a statistically significant effect on cell viability
[3]; LPS-stimulated macrophages, screening (Fig. 4)
  secretion of interleukin 6: suppressed
[3]; Mus musculus, Peritoneal macrophage, LPS-stimulated murine macrophages, read-out: IC50 of IL-6 synthesis/secretion
  IC50: 32.1 µM
IL-6 secretion
  selectivity ratio: 4 to 6
[4]
  solubility under assay conditions: insoluble under assay conditions
[5]
  inhibition of the synthesis of nitric oxide: statistically significantly inhibit
ICR mice
  antidepressant activity: antidepressant activity similar to amiloride; also recorded: antidepressant activity comparable with amiloride
Intraocular pressure; compared with zoniporide and timolol
  IOP-lowering effect size: negligible
Intraocular pressure; one drop (50 μl) of 0.4% solution instilled
  IOP-lowering activity: statistically significant activity

Source: PMC8692498, “Synthesis and multifaceted pharmacological activity of novel quinazoline NHE-1 inhibitors” (Scientific Reports, 2021)
